Laboratory results from patent US20240269086A1, “PERGULARIA TOMENTOSA SILVER NANOPARTICLES” (KING FAISAL UNIVERSITY, priority 2023, published 2024).

Tests used:
Experiment in all cases: Agar disk diffusion, inhibition zone diameter
Assay type in all cases: cell-based
[1] = tested on: B. cereus; conditions: 25 μg/ml, Nil = No growth
Excerpt: (§1) The agar disk diffusion method was used to investigate the antibacterial activity of the PT-AgNPs against four bacterial strains.

[2] = tested on: S. enteritidis; conditions: 6.25 μg/ml (by grid column), Nil = No growth
Excerpt: as §1

[3] = tested on: S. aureus; conditions: 25 μg/ml, Nil = No growth
Excerpt: as §1

[4] = tested on: E. coli; conditions: 25 μg/ml, Nil = No growth
Excerpt: as §1

Measured: IZD (mm)

O=C(N[C@H](CO)[C@H](O)c1ccc([N+](=O)[O-])cc1)C(Cl)Cl [Chloramphenicol]
Nil: all assays above
